Source: US8765641B2, “Chip production, hybridization and data interpretation for antibody and protein microarrays” (Detroit R&D, Inc., priority 2004, dated 2014)
Several values for one entry are separate records, joined by “and”; a condition that tells them apart may be missing. Identical values can stand only once. Like-named read-outs stand apart in the source and are kept apart here. Marks after values point to notes of the source that are not given here.

Tests used:
[1] = test system: CYP2B1/2B2; assay: Western blot analysis of rat hepatic proteins after PB treatment; assay type: in vivo; design: key: Highly Induced: Not detected in control but strong band after PB treatment.; Moderately Induced: Not detected in control but bands with a medium intensity detected after PB treatment; conditions: rat hepatic microsomal proteins, PB treated vs control
Protocol: (§1) SDS-PAGE was carried out on 10% or 15% gels. The separated proteins were electroblotted onto cellulose membrane and Western blot analyses were carried out using horseradish peroxidase-system with electrochemiluminescent substrates.
(§2) This microarray result was obtained by combining results from Control 1 and PB 1 assays and Control 2 and PB 2 assays. Expression levels of CYP2B1/2B2, CYP2B1, COX-2, CYP2D, CYP3A1/2/23, CYP2C11 and G3PDH in Rat #1 (Control 1), Rat #2 (PB 1), Rat #3 (Control 2) and Rat #4 (PB 2) were verified by Western blot analyses of microsomal and cytosolic proteins. Protein bands obtained by Western blot analyses were quantitated using a densitometer (Molecular Dynamics). […] COX-2 expression usually detected in microsomes also detected in cytosol. The cytosolic COX-2 levels were normalized by G3PDH levels.

[2] = test system: CYP2D; assay: as above; assay type: in vivo; conditions: rat hepatic microsomal proteins, PB treated vs control; two sets; mean and difference from the mean
Protocol: as §1, §2

[3] = test system: CYP3A; assay: as above; assay type: in vivo; conditions: rat hepatic microsomal proteins, PB treated vs control; two sets; mean and difference from the mean
Protocol: as §1, §2

[4] = test system: CYP3A (CYP3A1/2/23); conditions: anti-serum spots, IgG concentration not given
[5] = test system: Tubulin-alpha; conditions: rat hepatic proteins after PB treatment, 500 μg/ml IgG (ascites fluid), Flag internal control
[6] = test system: Alpha-actin; conditions: rat hepatic proteins after PB treatment; 500 μg/ml IgG (ascites fluid); Flag internal control
[7] = test system: Tubulin-beta; conditions: rat hepatic proteins after PB treatment; 500 μg/ml IgG; Flag internal control

Compound: CCC1(c2ccccc2)C(=O)NC(=O)NC1=O [phenobarbital]
- fold-increase of protein expression level, Western Blot Analysis, CYP2B1/2B2 [1]: Highly Induced^b
- fold-increase of protein expression level, Western Blot Analysis, CYP2D [2]: failed to increase
- fold-increase of protein expression level, Western Blot Analysis, CYP3A [3]: 7.00 ± 4.80^d fold
- CYP3A expression after phenobarbital treatment, array analysis [4]: increased higher than two-fold
- Fold-Change of Protein Expression Level, Tubulin-alpha [5]: 1.7 fold and 1.7^a fold
- Fold-Change of Protein Expression Level, Tubulin-alpha ([5]; listed as PB): 1.7 fold
- Fold-Change of Protein Expression Level, Alpha-actin [6]: 0.8 fold
- Fold-Change of Protein Expression Level, Tubulin-beta [7]: 0.7 fold
